From ChEMBL document CHEMBL3886344, “Compounds of modulating TRPV3 function” (2015) come the findings set out here.

The test in a line: Inhibition Assay: To determine whether compounds were selective for TRPV3 inhibition over inhibition of other ion channel types, the human ERG (hERG), NaV1.2, and TRPV1 (hTRPV1) channels and the rat TRPV6 (rTRPV6) channel were also stably transfected and expressed or induced to express in mammalian cell lines. The methods for measuring currents from these channels are well-established and have been described in numerous publications (See, Weerapura et al., 2002, J Physiology 540: 15-27; Rush et al., 2005, J Physiology 564: 808-815; Caterina et al., 1997, Nature 389: 816-824; Hoenderhop et al., 2001, J Physiology 537: 747-761; Clapham et al., 2003, Pharmacol Rev 55: 591-596).

Turning to `Cc1cccc2c1N(C(=O)CSc1ccc(Cl)cn1)CCC2`, the IC50 is more than 30 µM.

Usually IC50 stands for the point on the concentration scale where inhibition reaches its midpoint. High values mean lower potency, low ones higher potency.
